According to patent publication US20190224166A1, “Compositions and Methods for Treating Muscle Loss” (Augusta University Research Institute, Inc., priority 2018, published 2019):

System: quadriceps muscle
Assay: Proteomic analysis of quadriceps muscle of aged mice treated with 1-methyl-D-tryptophan (Table 1, TOPPGENE enrichment)
Type: in vivo
Protocol: Female mice 22 months of age were obtained from the National Institute on Aging and treated with saline (vehicle) or 1-methyl-D-tryptophan (1-MT, Sigma, 452483, lot#MKBZ1441V) at a low dose (10 mg/kg BW) or at a high dose (100 mg/kg BW). Mice were treated daily for 4 weeks. Treatments were administered i.p. with an injection volume of 0.2 ml following IACUC approved procedures. Mice were euthanized by CO2 overdose and muscles harvested for analysis. One quadriceps muscle was snap frozen for proteomics and the other quadriceps muscle fixed in buffered formalin for paraffin embedding and trichrome staining. The tibialis anterior was placed in PBS for amplex red assay.
The IDO inhibitor, 1-methyl-D-tryptophan, blocks kynurenine production and reduces levels of ROS in muscle.

Structure (SMILES): Cn1cc(C[C@@H](N)C(=O)O)c2ccccc21 [1MT]
- 1MT vs Control: UTP--glucose-1-phosphate uridylyltransferase (Q91ZJ5, GN = Ugp2): 0.9036
- 1MT vs Control: Trifunctional enzyme subunit beta, mitochondrial (Q99JY0, GN = Hadhb): 0.7
- 1MT vs Control: Aconitate hydratase, mitochondrial (Q99KI0, GN = Aco2): 0.8406
- 1MT vs Control: Electron transfer flavoprotein subunit alpha, mitochondrial (Q99LC5, GN = Etfa): 0.8462
- 1MT vs Control: O-acetyl-ADP-ribose deacetylase MACROD1 (Q922B1, GN = Macrod1): 0.9167
- 1MT vs Control: Nucleoside diphosphate kinase B (Q01768, GN = Nme2): 0.9242
- 1MT vs Control: Transitional endoplasmic reticulum ATPase (Q01853, GN = Vcp): 0.904
- 1MT vs Control: Ubiquitin-like modifier-activating enzyme 1 (Q02053, GN = Uba1): 0.5833
- 1MT vs Control: Voltage-dependent L-type calcium channel subunit alpha-1S (Q02789, GN = Cacna1s): 0.7143
- 1MT vs Control: ATP synthase subunit alpha, mitochondrial (Q03265, GN = Atp5a1): 0.6273
- 1MT vs Control: Corticosteroid-binding globulin (Q06770, GN = Serpina6): 0.3125
- 1MT vs Control: Short-chain specific acyl-CoA dehydrogenase, mitochondrial (Q07417, GN = Acads): 0.6
- 1MT vs Control: Protein-arginine deiminase type-2 (Q08642, GN = Padi2): 0.3438
- 1MT vs Control: Puromycin-sensitive aminopeptidase (Q11011, GN = Npepps): 0.5
- 1MT vs Control: 2-oxoglutarate dehydrogenase, mitochondrial (Q60597, GN = Ogdh): 0.4671
- 1MT vs Control: Voltage-dependent anion-selective channel protein 3 (Q60931, GN = Vdac3): 0.2609
- 1MT vs Control: Voltage-dependent anion-selective channel protein 1 (Q60932, GN = Vdac1): 0.3333
- 1MT vs Control: Peroxiredoxin-2 (Q61171, GN = Prdx2): 0.7895
- 1MT vs Control: Hydroxyacyl-coenzyme A dehydrogenase, mitochondrial (Q61425, GN = Hadh): 0.6364
- 1MT vs Control: Alpha-2-macroglobulin (Q61838, GN = A2m): 0.6316
- 1MT vs Control: Striated muscle-specific serine/threonine-protein kinase (Q62407, GN = Speg): 0.6667
- 1MT vs Control: 10 kDa heat shock protein, mitochondrial (Q64433, GN = Hspe1): 0.4
- 1MT vs Control: Glycerol-3-phosphate dehydrogenase, mitochondrial (Q64521, GN = Gpd2): 0.3077
- 1MT vs Control: Trifunctional purine biosynthetic protein adenosine-3 (Q64737, GN = Gart): 0.8
- 1MT vs Control (protein A2AUC9 Kelch-like protein 41, GN=Klhl41): 1.077
- 1MT vs Control (protein O08539 Myc box-dependent-interacting protein 1, GN=Bin1): 1.064
- 1MT vs Control (protein O70209 PDZ and LIM domain protein 3, GN=Pdlim3): 1.412
- 1MT vs Control (protein P04117 Fatty acid-binding protein, adipocyte, GN=Fabp4): 1.1
- 1MT vs Control (protein P05064 Fructose-bisphosphate aldolase A, GN=Aldoa): 1.096
- 1MT vs Control (protein P05132 cAMP-dependent protein kinase catalytic subunit alpha, GN=Prkaca): 1
- 1MT vs Control (protein P07309 Transthyretin, GN=Ttr): 2.5
- 1MT vs Control (protein P07310 Creatine kinase M-type, GN=Ckm): 1.182
- 1MT vs Control (protein P07758 Alpha-1-antitrypsin 1-1, GN=Serpina1a): 1.091
- 1MT vs Control (protein P08228 Superoxide dismutase [Cu—Zn], GN=Sod1): 1.273
- 1MT vs Control (protein P09103 Protein disulfide-isomerase, GN=P4hb): 1.077
- 1MT vs Control (protein P09411 Phosphoglycerate kinase 1, GN=Pgk1): 1.089
- 1MT vs Control (protein P10637 Microtubule-associated protein tau, GN=Mapt): 3
- 1MT vs Control (protein P10649 Glutathione S-transferase Mu 1, GN=Gstm1): 1.152
- 1MT vs Control (protein P13412 Troponin I, fast skeletal muscle, GN=Tnni2): 1.5
- 1MT vs Control (protein P13707 Glycerol-3-phosphate dehydrogenase [NAD(+)], cytoplasmic, GN=Gpd1): 1.072
- 1MT vs Control (protein P14231 Sodium/potassium-transporting ATPase subunit beta-2, GN=Atp1b2): 1
- 1MT vs Control (protein P15626 Glutathione S-transferase Mu 2, GN=Gstm2): 1.111
- 1MT vs Control (protein P16858 Glyceraldehyde-3-phosphate dehydrogenase, GN=Gapdh): 1.167
- 1MT vs Control (protein P17182 Alpha-enolase, GN=Eno1): 1.039
- 1MT vs Control (protein P17742 Peptidyl-prolyl cis-trans isomerase A, GN=Ppia): 1.176
- 1MT vs Control (protein P17751 Triosephosphate isomerase, GN=Tpi1): 1.136
- 1MT vs Control (protein P18826 Phosphorylase b kinase regulatory subunit alpha, skeletal muscle isoform, GN=Phka1): 1.143
- 1MT vs Control (protein P20029 78 kDa glucose-regulated protein, GN=Hspa5): 1.522
- 1MT vs Control (protein P21550 Beta-enolase, GN=Eno3): 1.063
- 1MT vs Control (protein P22599 Alpha-1-antitrypsin 1-2, GN=Serpina1b): 1.028
- 1MT vs Control (protein P23506 Protein-L-isoaspartate(D-aspartate) O-methyltransferase, GN=Pcmt1): 1
- 1MT vs Control (protein P23953 Carboxylesterase 1C, GN=Ces1c): 1.08
- 1MT vs Control (protein P26043 Radixin, GN=Rdx): 1.267
- 1MT vs Control (protein P26883 Peptidyl-prolyl cis-trans isomerase FKBP1A, GN=Fkbp1a): 1.5
- 1MT vs Control (protein P27546 Microtubule-associated protein 4, GN=Map4): 3
- 1MT vs Control (protein P28474 Alcohol dehydrogenase class-3, GN=Adh5): 1.176
- 1MT vs Control (protein P28654 Decorin, GN=Dcn): 1.36
- 1MT vs Control (protein P29699 Alpha-2-HS-glycoprotein, GN=Ahsg): 1.111
- 1MT vs Control (protein P31001 Desmin, GN=Des): 1.133
- 1MT vs Control (protein P45376 Aldose reductase, GN=Akr1b1): 1.064
- 1MT vs Control (protein P45591 Cofilin-2, GN=Cfl2): 1
- 1MT vs Control (protein P47791 Glutathione reductase, mitochondrial, GN=Gsr): 1.25
- 1MT vs Control (protein P47857 ATP-dependent 6-phosphofructokinase, muscle type, GN=Pfkm): 1.013
- 1MT vs Control (protein P50396 Rab GDP dissociation inhibitor alpha, GN=Gdi1): 1.1875
- 1MT vs Control (protein P51885 Lumican, GN=Lum): 1.231
- 1MT vs Control (protein P58252 Elongation factor 2, GN=Eef2): 1.092
- 1MT vs Control (protein P62631 Elongation factor 1-alpha 2, GN=Eef1a2): 1.256
- 1MT vs Control (protein P62908 40S ribosomal protein S3, GN=Rps3): 1
- 1MT vs Control (protein P63005 Platelet-activating factor acetylhydrolase IB subunit alpha, GN=Pafah1b1): 1.25
- 1MT vs Control (protein P63017 Heat shock cognate 71 kDa protein, GN=Hspa8): 1.016
- 1MT vs Control (protein P68134 Actin, alpha skeletal muscle, GN=Acta1): 1.126
- 1MT vs Control (protein P70296 Phosphatidylethanolamine-binding protein 1, GN=Pebp1): 1.024
- 1MT vs Control (protein P70402 Myosin-binding protein H, GN=Mybph): 1.156
- 1MT vs Control (protein P82349 Beta-sarcoglycan, GN=Sgcb): 1
- 1MT vs Control (protein P97384 Annexin A11, GN=Anxa11): 1.375
- 1MT vs Control (protein Q3TJD7 PDZ and LIM domain protein 7, GN=Pdlim7): 1.111
- 1MT vs Control (protein Q3TVI8 Pre-B-cell leukemia transcription factor-interacting protein 1, GN=Pbxip1): 1
- 1MT vs Control (protein Q3TXS7 26S proteasome non-ATPase regulatory subunit 1, GN=Psmd1): 1.333
- 1MT vs Control (protein Q3U0V1 Far upstream element-binding protein 2, GN=Khsrp): 1
- 1MT vs Control (protein Q3UZA1 CapZ-interacting protein, GN=Rcsd1): 1.2
- 1MT vs Control (protein Q5SX39 Myosin-4, GN=Myh4): 1.106
- 1MT vs Control (protein Q7TSH2 Phosphorylase b kinase regulatory subunit beta, GN=Phkb): 1.083
- 1MT vs Control (protein Q8BGQ7 Alanine--tRNA ligase, cytoplasmic, GN=Aars): 1.5
- 1MT vs Control (protein Q8BU85 Methionine-R-sulfoxide reductase B3, mitochondrial, GN=Msrb3): 2.5
- 1MT vs Control (protein Q8C7E7 Starch-binding domain-containing protein 1, GN=Stbd1): 1
- 1MT vs Control (protein Q8CGC7 Bifunctional glutamate/proline--tRNA ligase, GN=Eprs): 1.333
- 1MT vs Control (protein Q8CHP8 Phosphoglycolate phosphatase, GN=Pgp): 1
- 1MT vs Control (protein Q8CHS7 Dehydrogenase/reductase SDR family member 7C, GN=Dhrs7c): 2.667
- 1MT vs Control (protein Q8CHT0 Delta-1-pyrroline-5-carboxylate dehydrogenase, mitochondrial, GN=Aldh4a1): 1
- 1MT vs Control (protein Q8K4Z3 NAD(P)H-hydrate epimerase, GN=Apoa1bp): 1
- 1MT vs Control (protein Q8R1G2 Carboxymethylenebutenolidase homolog, GN=Cmbl): 1.235
- 1MT vs Control (protein Q8VCM7 Fibrinogen gamma chain, GN=Fgg): 1.25
- 1MT vs Control (protein Q8VHX6 Filamin-C, GN=Flnc): 1.059
- 1MT vs Control (protein Q9CPU0 Lactoylglutathione lyase, GN=Glo1): 1.095
- 1MT vs Control (protein Q9CZ30 Obg-like ATPase 1, GN=Ola1): 3.25
- 1MT vs Control (protein Q9D7X3 Dual specificity protein phosphatase 3, GN=Dusp3): 1.5
- 1MT vs Control (protein Q9D8N0 Elongation factor 1-gamma, GN=Eef1g): 1.1
- 1MT vs Control (protein Q9D172 ES1 protein homolog, mitochondrial, GN=D10Jhu81e): 1.2
- 1MT vs Control (protein Q9ESD7 Dysferlin, GN=Dysf): 3
- 1MT vs Control (protein Q9ET78 Junctophilin-2, GN=Jph2): 1.381
- 1MT vs Control (protein Q9ET80 Junctophilin-1, GN=Jph1): 1.143
- 1MT vs Control (protein Q9JKB3 Y-box-binding protein 3, GN=Ybx3): 1.333
- 1MT vs Control (protein Q9JKS4 LIM domain-binding protein 3, GN=Ldb3): 1.037
- 1MT vs Control (protein Q9QYG0 Protein NDRG2, GN=Ndrg2): 1.015
- 1MT vs Control (protein Q9R0Y5 Adenylate kinase isoenzyme 1, GN=Ak1): 1.133
- 1MT vs Control (protein Q9R062 Glycogenin-1, GN=Gyg1): 1.538
- 1MT vs Control (protein Q9WUZ7 SH3 domain-binding glutamic acid-rich protein, GN=Sh3bgr): 1.057
- 1MT vs Control (protein Q9Z1Z2 Serine-threonine kinase receptor-associated protein, GN=Strap): 1.5
- 1MT vs Control (protein Q9Z2U0 Proteasome subunit alpha type-7, GN=Psma7): 3
- 1MT vs Control (protein Q70KF4 Cardiomyopathy-associated protein 5, GN=Cmya5): 1
- 1MT vs Control (protein Q76MZ3 Serine/threonine-protein phosphatase 2A 65 kDa regulatory subunit A alpha isoform, GN=Ppp2r1a): 1.125
- 1MT vs Control (protein Q91VI7 Ribonuclease inhibitor, GN=Rnh1): 1.111
- 1MT vs Control (protein Q91YE8 Synaptopodin-2, GN=Synpo2): 1.077
- 1MT vs Control (protein Q99LX0 Protein deglycase DJ-1, GN=Park7): 1.194
- 1MT vs Control (protein Q99PR8 Heat shock protein beta-2, GN=Hspb2): 1.5
- 1MT vs Control (protein Q924M7 Mannose-6-phosphate isomerase, GN=Mpi): 1.111
- 1MT vs Control (protein Q04857 Collagen alpha-1(VI) chain, GN=Col6a1): 1.5
- 1MT vs Control (protein Q60864 Stress-induced-phosphoprotein 1, GN=Stip1): 1.167
- 1MT vs Control (protein Q61292 Laminin subunit beta-2, GN=Lamb2): 1
- 1MT vs Control (protein Q61584 Fragile X mental retardation syndrome-related protein 1, GN=Fxr1): 1
- 1MT vs Control (protein Q62234 Myomesin-1, GN=Myom1): 1.113
- 1MT vs Control (protein Q62446 Peptidyl-prolyl cis-trans isomerase FKBP3, GN=Fkbp3): 1.429
- 1MT vs Control (protein Q64105 Sepiapterin reductase, GN=Spr): 1.5
- 1MT vs Control (protein Q64727 Vinculin, GN=Vcl): 1.333
